These are literature values, as cited in paper PMC8284440, “Toward New Transmission-Blocking Combination Therapies: Pharmacokinetics of 10-Amino-Artemisinins and 11-Aza-Artemisinin and Comparison with Dihydroartemisinin and Artemether” (Antimicrobial Agents and Chemotherapy, 2021).

By EC50 is commonly meant the concentration giving half of the maximal effect. For orientation: Cmax means the peak of the concentration-time curve.

Series [1] concerns late stage (IV-V) P. falciparum NF54 gametocytes. On the set-up: method as in ref 4 (supplement; main text 62). Conditions: Table S4, n = 1; ref 4 (supplement; main text 62); read-out: Late stage IC50 (pLDH 72 + 72 h); cited from earlier work.
The subject of series [2] is WI-38 HFLF. On the set-up: method as in ref 4 (supplement; main text 62). Conditions: Table S2; ref 4 (supplement; main text 62); read-out: Cytotoxicities IC50 WI-38 HFLF; cited from earlier work.
The test system of series [3] is liver stage P. berghei ANKA GFP-Luc-SMcon sporozoites. On the set-up: method as in ref 2 (supplement; main text 48). Conditions: ref 2 (supplement; main text 48), cited from earlier work; for IC50: 48 h, ± SD.
In series [4] the test system is P. falciparum K1. Also on record: method as in ref 1 and 2 (supplement; main text 47, 48). Conditions: Table S1, ± SEM; ref 1 and 2 (supplement; main text 47, 48); cited from earlier work.
The test system of series [5] is Chinese hamster ovary (CHO) cells. Conditions: read-out: Cytotoxicity EC50 CHO; MTT, ±SD; ref 1 and 2 (supplement; main text 47, 48); cited from earlier work.
Series [6] relates to P. falciparum D6. On the set-up: method as in ref 5 (supplement; main text 63). Conditions: CQ sensitive; ref 5 (supplement; main text 63); read-out: Antimalarial activities IC50 D6; cited from earlier work.
Series [7] concerns nonsevere malaria. Also on record: method as in PMID 18559649, PMID 30902052, doi:10.4103/jpp.JPP_23_20. Conditions: patients with nonsevere malaria; cited from earlier work.
Series [8] relates to murine cerebral malaria. Also on record: method as in PMID 20691118. Conditions: prescribed low dose levels; cited from earlier work.
For series [9], the system named is P. falciparum W2. Also on record: method as in PMID 25049252. Conditions: read-out: activity against W2; cited from earlier work.
The test system of series [10] is P. falciparum W2. Also on record: method as in ref 5 (supplement; main text 63). Conditions: CQ resistant; ref 5 (supplement; main text 63); read-out: Antimalarial activities IC50 W2; cited from earlier work.
The test system of series [11] is CamWTC580Y, Cam3.IIC580Y and Cam3.IIRev strains. On the set-up: method as in PMID 25049252. Conditions: read-out: mean IC50 across Cambodian strains; cited from earlier work.
For series [12], the system named is W2 ring-stage parasites. On the set-up: method as in PMID 25288088. Conditions: not in a concentration-dependent manner; cited from earlier work.
On the set-up of series [13]: method as in PMID 16444785, PMID 18559649. Conditions: female rats, cited from earlier work.
For series [14] the following is noted: in vivo; cited from earlier work.
On the set-up of series [15]: method as in PMID 16444785. Conditions: cited from earlier work.

SMILES strings stand for the structures. Read-outs that look alike come from different tables or passages of the source.

On to `C[C@@H]1CC[C@H]2[C@@H](C)C(=O)N[C@@H]3O[C@@]4(C)CC[C@@H]1[C@]32OO4` [11-Aza-artemisinin 11, 11-aza-artemisinin], for which the IC50 in series [1] was 622 nM; in series [2], greater than 100000 nM.
Consider `CO[C@H]1O[C@@H]2O[C@@]3(C)CC[C@H]4[C@H](C)CC[C@@H]([C@H]1C)[C@@]24OO3` [Artemether 3, artemether], for which the results for the IC50 in series [3] and in series [3] (listed as artemether) were greater than 104 nM and greater than 10000 nM, respectively. The Maximum inhibition % in series [3] (at 10 µM) was 49.4%.
With `C[C@H]1[C@H](N2CCSCC2)O[C@@H]2O[C@@]3(C)CC[C@H]4[C@H](C)CC[C@@H]1[C@@]24OO3` [Artemiside 5, artemiside], the IC50 is 1.6 ± 0.4 nM in series [4] and 81.3 nM in series [3]. The Maximum inhibition % in series [3] (at 5 µM) is recorded as 99.05±1.34%. Moreover, the EC50 in series [5] was greater than 271000 nM.
With `C[C@H]1[C@H](N2CCS(=O)(=O)CC2)O[C@@H]2O[C@@]3(C)CC[C@H]4[C@H](C)CC[C@@H]1[C@@]24OO3` [Artemisone 6, artemisone], the IC50 in series [6] was 1 ± 0.4 nM; in series [4], 1.01 ± 0.19 nM; in series [3], 28.3 nM; in series [9] it was 1.9 nM; in series [10], 1.3 ± 0.5 nM; in series [11] it was 2.4 nM. Besides, in series [7], the “Cure in phase IIa trial” value is reported as “curative at one-third the dose level of artesunate”. Besides, in [8], the “Cure of murine cerebral malaria” value is “completely curative”. Further, the Maximum inhibition % in [3] (at 10 µM) was 93.35±1.76%. The EC50 in [5] was greater than 249000 nM. The “Induction of quiescence in W2 ring-stage parasites” value in [12] was “induce quiescence”. Besides, the Cmax was 35 ng/mL in [13] (single oral dose 3 mg/kg), 230 ng/mL in [13] (single oral dose 10 mg/kg) and 850 ng/mL in series [13] (single oral dose 30 mg/kg). Further, the results for the elimination half-life in [13] (single oral dose 3 mg/kg), in series [13] (single oral dose 10 mg/kg) and in series [13] (single oral dose 30 mg/kg) were 10.8 min, 22.2 min and 32.4 min, respectively. Also, the “artemisone equivalent concentrations at Tmax by bioassay versus LC/MS-MS, fold higher” value in series [14] was “about 2.3 fold”. Also, in series [15], the Neurotoxicity entry is “nonneurotoxic”.
As to `C[C@H]1[C@H](N2CCN(C(=O)Nc3ccc(F)cc3)CC2)O[C@@H]2O[C@@]3(C)CC[C@H]4[C@H](C)CC[C@@H]1[C@@]24OO3` [Arylurea 10], the IC50 in series [4] was 0.85 ± 0.1 nM; in series [3], 106 nM. Besides, the Maximum inhibition % in [3] (at 10 µM) is listed as 94.85±2.76%. Also, the EC50 in [5] was 204000 nM.
Turning to `C[C@H]1[C@@H](O)O[C@@H]2O[C@@]3(C)CC[C@H]4[C@H](C)CC[C@@H]1[C@@]24OO3` [DHA 2, dihydroartemisinin], the IC50 in series [6] is 1.7 ± 0.4 nM; in series [4] it was 1.51 ± 0.33 nM; in series [9] it was 5.2 nM; in series [10], 2.2 ± 0.8 nM; in series [11], 11.2 nM. In addition, in [8], the “Cure of murine cerebral malaria” value was “no cure”. Further, the EC50 in [5] was 25200 nM.
Turning to `C[C@H]1[C@H](N2C=CS(=O)(=O)CC2)O[C@@H]2O[C@@]3(C)CC[C@H]4[C@H](C)CC[C@@H]1[C@@]24OO3` [M1 12], the IC50 in [6] is 4.7 ± 0.2 nM; in series [10] it was 6.6 ± 0.4 nM. In series [12], the “Induction of quiescence in W2 ring-stage parasites” value was “induce quiescence”.
Turning to `C[C@H]1[C@H](NS(N)(=O)=O)O[C@@H]2O[C@@]3(C)CC[C@H]4[C@H](C)CC[C@@H]1[C@@]24OO3` [Sulfamide 7], in [4], the IC50 was 1.78 ± 0.26 nM. Also, the EC50 in [5] is 56000 ± 4600 nM.
